Each molecule was assayed against mTOR/GbL/Raptor (mTORC1) (Homo sapiens, UniProt P42345) (assay: mTOR/GbL/Raptor (mTORC1) ELISA assay, phosphorylation of 4E-BP1). Conditions: 0.2 nM mTORC1, 40 uM ATP, 50 nM NHis-tagged 4E-BP1, 120 minutes; read-out: IC50 in this assay (mTORC1 ELISA).
Format: biochemical
Method: The measurement of mTORC1 enzyme activity was performed in an ELISA assay format following the phosphorylation of 4E-BP1 protein. All experiments were performed in the 384-well format. Generally, 0.5 μL DMSO containing varying concentrations of the test Compound was mixed with 15 μL enzyme solution. Kinase reactions were initiated with the addition of 15 μL of substrates-containing solution. The assay conditions were-as follows; 0.2 nM mTORC1, 40 uM ATPand 50 nM NHis-tagged4E-BP1 in20 mM Hepes, pH 7.2, 1 mM DTT, 50 mMNaC1, 10 mM MnC12, 0.02 mg/mL BSA, 0.01% CHAPS, 50 mM β-glycerophosphate. Following an incubation of 120 minutes at anibient temperature, 20 μL of the reaction volume was transferred to a Ni-Chelate-coated 384-well plate. The binding step of the 4E-BP1 protein proceeded for 60 minutes, followed by washing 4 times each with 50 uL of Tris-buffered saline solution (TBS). Anti-phospho-4E-BPl rabbit-IgG ([…]. 1:5000) in 5% BSA-TBST (0.2% Tween-20 in TBS) was added and further incubated for 60 minutes. Incubation with a secondary HRP-tagged anti-IgG was similarly performed after washing off the primary antibody (4 washes of 50 μL). Following the final wash step with TBST, 20 μL of SuperSignal ELISA Femto (Pierce Biotechnology) was added and the luminescence measured using an En Vision plate reader.

Row | Structure (SMILES) | IC50 [nM]
1 | Cc1cc(-c2cnc3sc(N)nc3c2)cc2c1OCCN(c1nc(N)c(C#N)cc1C#N)C2 [Compound 32, 2-amino-6-[7-(2-amino[1,3]thiazolo[5,4-b]pyridin-6-yl)-9-methyl-2,3-dihydro-1,4-benzoxazepin-4(5H)-yl]pyridine-3,5-dicarbonitrile] | ≤ 100
2 | Cc1cnc(N2CCOc3c(C)cc(-c4cnc5sc(N)nc5c4)cc3C2)nc1N [Compound 37, 6-[4-(4-amino-5-methylpyrimidin-2-yl)-9-methyl-2,3,4,5-tetrahydro-1,4-benzoxazepin-7-yl][1,3]thiazolo[5,4-b]pyridin-2-amine] | 100 to 500
3 | Cc1cc(-c2cnc3sc(N)nc3c2)cc2c1OCCN(c1ncccc1C#N)C2 [Compound 38, 2-[7-(2-amino[1,3]thiazolo[5,4-b]pyridin-6-yl)-9-methyl-2,3-dihydro-1,4-benzoxazepin-4(5H)-yl]pyridine-3-carbonitrile] | 100 to 500
4 | Cc1cc(-c2cnc3sc(N)nc3c2)cc2c1OCCN(c1ncccc1C(N)=O)C2 [Compound 39, 2-[7-(2-amino[1,3]thiazolo[5,4-b]pyridin-6-yl)-9-methyl-2,3-dihydro-1,4-benzoxazepin-4(5H)-yl]pyridine-3-carboxamide] | 100 to 500
5 | Cc1cc(-c2ccc(-c3ncc[nH]3)cc2)cc2c1OCCN(c1nc(N)nc(C)c1C(C)C)C2 [Compound 42, 4-{7-[4-(1H-imidazol-2-yl)phenyl]-9-methyl-2,3-dihydro-1,4-benzoxazepin-4(5H)-yl}-6-methyl-5-(1-methylethyl)pyrimidin-2-amine] | ≤ 100
6 | Cc1cc(-c2cnc(Cl)c(NS(C)(=O)=O)c2)cc2c1OCCN(c1nc(C(=O)NCCN(C)C)nc(C)c1C(C)C)C2 [Compound 43, 4-[7-(6-chloro-5-[(methylsulfonyl)amino]pyridin-3-yl}-9-methyl-2,3-dihydro-1,4-benzoxazepin-4(5H)-yl]-N-[2-(dimethylamino)ethyl]-6-methyl-5-(1-methylethyl)pyrimidine-2-carboxamide] | ≤ 100
7 | Cc1cc(-c2cnc(Cl)c(NS(C)(=O)=O)c2)cc2c1OCCN(c1nc(C(N)=O)nc(C)c1C(C)C)C2 [Compound 44, 4-[7-{6-chloro-5-[(methylsulfonyl)amino]pyridin-3-yl}-9-methyl-2,3-dihydro-1,4-benzoxazepin-4(5H)-yl]-6-methyl-5-(1-methylethyl)pyrimidine-2-carboxamide] | ≤ 100
8 | Cc1nc2ccc(-c3cc(C)c4c(c3)CN(c3nc(CN(C)C)nc(C)c3C(C)C)CCO4)cc2[nH]1 [Compound 45, N,N-dimethyl-1-{4-methyl-5-(1-methylethyl)-6-[9-methyl-7-(2-methyl-1H-benzimidazol-6-yl)-2,3-dihydro-1,4-benzoxazepin-4(5H)-yl]pyrimidin-2-yl}methanamine] | 100 to 500
9 | Cc1cc(-c2cnc3sc(N)nc3c2)cc2c1OCCN(c1nc(N)nc(C)c1CC1CC1)C2 [Compound 46, 6-{4-[2-amino-5-(cyclopropylmethyl)-6-methylpyrimidin-4-yl]-9-methyl-2,3,4,5-tetrahydro-1,4-benzoxazepin-7-yl}[1,3]thiazolo[5,4-b]pyridin-2-amine] | ≤ 100
10 | Cc1cnccc1N1CCOc2c(C)cc(-c3cnc4sc(N)nc4c3)cc2C1 [Compound 48, 6-[9-methyl-4-(3-methylpyridin-4-yl)-2,3,4,5-tetrahydro-1,4-benzoxazepin-7-yl][1,3]thiazolo[5,4-b]pyridin-2-amine] | 100 to 500
11 | Cc1cc(-c2cnc3sc(N)nc3c2)cc2c1OCCN(c1nc(N)nc(C)c1-c1cccc(F)c1)C2 [Compound 49, 6-{4-[2-amino-5-(3-fluorophenyl)-6-methylpyrimidin-4-yl]-9-methyl-2,3,4,5-tetrahydro-1,4-benzoxazepin-7-yl}[1,3]thiazolo[5,4-b]pyridin-2-amine] | ≤ 100
12 | Cc1cc(-c2cnc3sc(N)nc3c2)cc2c1OCCN(c1nc(NCCN(C)C)nc(C)c1C(C)C)C2 [Compound 50, N′-{4-[7-(2-amino[1,3]thiazolo[5,4-b]pyridin-6-yl)-9-methyl-2,3-dihydro-1,4-benzoxazepin-4(5H)-yl]-6-methyl-5-(1-methylethyl)pyrimidin-2-yl}-N,N-dimethylethane-1,2-diamine] | ≤ 100
13 | C=CCc1c(C)nc(N)nc1N1CCOc2c(C)cc(-c3cnc4sc(N)nc4c3)cc2C1 [Compound 51, 6-{4-(2-amino-6-methyl-5-prop-2-en-1-ylpyrimidin-4-yl)-9-methyl-2,3,4,5-tetrahydro-1,4-benzoxazepin-7-yl][1,3]thiazolo[5,4-b]pyridin-2-amine] | ≤ 100
14 | CNc1nc(C)c(C(C)C)c(N2CCOc3c(C)cc(-c4cnc5sc(N)nc5c4)cc3C2)n1 [Compound 53, 6-{9-methyl-4-[6-methyl-2-(methylamino)-5-(1-methylethyl)pyrimidin-4-yl]-2,3,4,5-tetrahydro-1,4-benzoxazepin-7-yl}[1,3]thiazolo[5,4-b]pyridin-2-amine] | ≤ 100
15 | Cc1cc(-c2cnc3sc(N)nc3c2)cc2c1OCCN(c1nc(N)ccc1C#N)C2 [Compound 55, 6-amino-2-[7-(2-amino[1,3]thiazolo[5,4-b]pyridin-6-yl)-9-methyl-2,3-dihydro-1,4-benzoxazepin-4(5H)-yl]pyridine-3-carbonitrile] | ≤ 100
16 | CCc1nc(N)nc(N2CCOc3c(C)cc(-c4cnc5sc(N)nc5c4)cc3C2)c1C(C)C [Compound 56, 6-{4-[2-amino-6-ethyl-5-(1-methylethyl)pyrimidin-4-yl]-9-methyl-2,3,4,5-tetrahydro-1,4-benzoxazepin-7-yl}[1,3]thiazolo[5,4-b]pyridin-2-amine] | ≤ 100
17 | Cc1cc(-c2cnc3sc(N)nc3c2)cc2c1OCCN(c1nc(CN(C)C)ncc1C(C)C)C2 [Compound 58, 6-(4-{2-[(dimethylamino)methyl]-5-(1-methylethyl)pyrimidin-4-yl}-9-methyl-2,3,4,5-tetrahydro-1,4-benzoxazepin-7-yl)[1,3]thiazolo[5,4-b]pyridin-2-amine] | ≤ 100

The next lines start with the values.

Row | IC50 [nM] | Structure (SMILES)
18 | ≤ 100 | Cc1cc(-c2cnc3sc(N)nc3c2)cc2c1OCCN(c1nccnc1C#N)C2 [Compound 34, 3-[7-(2-amino[1,3]thiazolo[5,4-b]pyridin-6-yl)-9-methyl-2,3-dihydro-1,4-benzoxazepin-4(5H)-yl]pyrazine-2-carbonitrile]
19 | 100 to 500 | Cc1cc(-c2cnc3sc(N)nc3c2)cc2c1OCCN(c1ncc(F)c(N)n1)C2 [Compound 35, 6-[4-(4-amino-5-fluoropyrimidin-2-yl)-9-methyl-2,3,4,5-tetrahydro-1,4-benzoxazepin-7-yl][1,3]thiazolo[5,4-b]pyridin-2-amine]
20 | 100 to 500 | Cc1cc(-c2cnc3sc(N)nc3c2)cc2c1OCCN(c1ccc(C#N)cn1)C2 [Compound 36, 6-[7-(2-amino[1,3]thiazolo[5,4-b]pyridin-6-yl)-9-methyl-2,3-dihydro-1,4-benzoxazepin-4(5H)-yl]pyridine-3-carbonitrile]
21 | ≤ 100 | C=Cc1c(Cl)nc(N)nc1N1CCOc2c(C)cc(-c3cnc4sc(N)nc4c3)cc2C1 [Compound 40, 6-[4-(2-amino-6-chloro-5-ethenylpyrimidin-4-yl)-9-methyl-2,3,4,5-tetrahydro-1,4-benzoxazepin-7-yl][1,3]thiazolo[5,4-b]pyridin-2-amine]
22 | ≤ 100 | CCCc1c(C)nc(N)nc1N1CCOc2c(C)cc(-c3cnc4sc(N)nc4c3)cc2C1 [Compound 41, 6-[4-(2-amino-6-methyl-5-propylpyrimidin-4-yl)-9-methyl-2,3,4,5-tetrahydro-1,4-benzoxazepin-7-yl][1,3]thiazolo[5,4-b]pyridin-2-amine]
23 | 100 to 500 | Cc1nc2ccc(-c3cc(C)c4c(c3)CN(c3ncnc5ccc(I)cc35)CCO4)cc2[nH]1 [Compound 47, 4-(6-iodoquinazolin-4-yl)-9-methyl-7-(2-methyl-1H-benzimidazol-6-yl)-2,3,4,5-tetrahydro-1,4-benzoxazepine]
24 | ≤ 100 | Cc1cc(-c2cnc(Cl)c(NS(=O)(=O)C(F)(F)F)c2)cc2c1OCCN(c1nc(N)nc(C)c1C(C)C)C2 [Compound 52, N-(5-{4-[2-amino-6-methyl-5-(1-methylethyl)pyrimidin-4-yl]-9-methyl-2,3,4,5-tetrahydro-1,4-benzoxazepin-7-yl}-2-chloropyridin-3-yl)-1,1,1-trifluoromethanesulfonamide]
25 | ≤ 100 | CCc1c(Cl)nc(N)nc1N1CCOc2c(C)cc(-c3cnc4sc(N)nc4c3)cc2C1 [Compound 54, 6-[4-(2-amino-6-chloro-5-ethylpyrimidin-4-yl)-9-methyl-2,3,4,5-tetrahydro-1,4-benzoxazepin-7-yl}[1,3]thiazolo[5,4-b]pyridin-2-amine]
26 | ≤ 100 | Cc1cc(-c2cnc3sc(N)nc3c2)cc2c1OCCN(c1nc(N)c(C#N)c(C)c1C#N)C2 [Compound 57, 2-amino-6-[7-(2-amino[1,3]thiazolo[5,4-b]pyridin-6-yl)-9-methyl-2,3-dihydro-1,4-benzoxazepin-4(5H)-yl]-4-methylpyridine-3,5-dicarbonitrile]
